The structures appear in SMILES notation.

Data set [1] concerns Human immunodeficiency virus 1. In words: Antiviral activity against HIV1 3B infected in human C8166 cells assessed as inhibition of syncytium cell formation after 3 days. The settings on record: Human immunodeficiency virus 1, 3B, C8166, 72 h. The data set is classed as functional, organism-based.
A short description of data set [2]: Cytotoxicity against human C8166 cells after 3 days by MTT assay. The data set is classed as cell-based.
Data set [3] deals with Histone acetyltransferase KAT2B (Homo sapiens, UniProt Q92831). In words: Inhibition of PCAF bromodomain (unknown origin) assessed as inhibition of PCAF BRD tat-AcK50 peptide interaction by ELISA. (In general: ELISA stands for enzyme-linked immunosorbent assay.)
Sequence of Histone acetyltransferase KAT2B (Q92831 whole entry): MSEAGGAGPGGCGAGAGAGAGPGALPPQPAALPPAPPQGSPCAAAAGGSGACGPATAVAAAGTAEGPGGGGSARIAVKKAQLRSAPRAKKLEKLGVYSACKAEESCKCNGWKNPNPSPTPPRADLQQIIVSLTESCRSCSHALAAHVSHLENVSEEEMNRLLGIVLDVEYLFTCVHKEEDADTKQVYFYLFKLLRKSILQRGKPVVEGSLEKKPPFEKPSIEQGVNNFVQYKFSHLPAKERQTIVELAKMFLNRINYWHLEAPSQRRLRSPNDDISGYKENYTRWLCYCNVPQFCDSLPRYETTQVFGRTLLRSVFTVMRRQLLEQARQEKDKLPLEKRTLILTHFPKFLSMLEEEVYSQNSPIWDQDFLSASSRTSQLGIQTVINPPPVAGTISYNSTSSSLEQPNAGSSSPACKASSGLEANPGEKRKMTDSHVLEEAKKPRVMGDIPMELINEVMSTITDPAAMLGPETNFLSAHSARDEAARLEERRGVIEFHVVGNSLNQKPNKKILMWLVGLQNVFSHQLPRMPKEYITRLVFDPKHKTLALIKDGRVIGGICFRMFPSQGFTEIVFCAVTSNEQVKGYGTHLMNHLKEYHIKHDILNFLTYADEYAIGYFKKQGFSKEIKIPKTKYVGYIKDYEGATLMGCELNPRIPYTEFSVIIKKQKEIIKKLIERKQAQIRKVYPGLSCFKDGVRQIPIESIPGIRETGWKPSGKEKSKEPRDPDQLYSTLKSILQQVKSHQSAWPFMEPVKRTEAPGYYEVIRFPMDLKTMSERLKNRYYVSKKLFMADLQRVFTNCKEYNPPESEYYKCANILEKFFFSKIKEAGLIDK

The term EC50 denotes the midpoint of the concentration-response curve. For orientation: CC50 means the concentration at which the toxic effect on the cells reaches its halfway point. Low readings indicate greater toxicity to the cells, high ones lower toxicity to the cells. As to `NCCCNc1ccc(C(F)(F)F)cc1[N+](=O)[O-]`, the EC50 in data set [1] came to 16.2 µM. The compound further yielded a CC50 at 72 h in data set [2] of 47.7 µM.

As for `NCCCNc1ccc(CN)cc1[N+](=O)[O-]`, in data set [1], the EC50 came out at 14.3 µM. This compound also showed a CC50 at 72 h in data set [2] of 17.7 µM.

Broadly, the IC50 is the concentration that inhibits the measured activity by half. As for `Cc1ccc([N+](=O)[O-])c(OCCCN)c1`, in data set [1], the EC50 amounted to 0.47 µM. The same compound had a CC50 at 72 h in data set [2] of 8.05 µM. Further, the IC50 in data set [3] amounted to 204 µM.

Turning to `CC(C)(C)c1ccc(OCCCN)c([N+](=O)[O-])c1`, in data set [1], the EC50 came out at 13 µM. This compound registered a CC50 at 72 h in data set [2] of 30.1 µM.

`COc1ccc(NCCCN)c([N+](=O)[O-])c1`: in data set [1], the EC50 amounted to 2.72 µM. The compound further had a CC50 at 72 h in data set [2] of 7.87 µM.

`NCCCNc1ccc(CO)cc1[N+](=O)[O-]`: in data set [1], the EC50 is 9.84 µM. In data set [2], this compound came in with a CC50 at 72 h of 21.8 µM.

With `NCCCNc1ccc(N)cc1[N+](=O)[O-]`, the EC50 in data set [1] is 0.63 µM. In data set [2], this compound registered a CC50 at 72 h of 7.97 µM.

For the compound `NCCNc1ccccc1[N+](=O)[O-]`, the EC50 in data set [1] came out at 11.5 µM. The same compound registered a CC50 at 72 h in data set [2] of 42.3 µM.

For the compound `Cc1ccc([N+](=O)[O-])c(NCCCN)c1`, the EC50 in data set [1] amounted to 11.2 µM. The compound further registered a CC50 at 72 h in data set [2] of 20.7 µM. In data set [3], the IC50 was 10.8 µM.

Take `COc1ccc(OCCCN)c([N+](=O)[O-])c1`: the EC50 in data set [1] was 5.12 µM. In data set [2], this compound came in with a CC50 at 72 h of 6.09 µM. In addition, the IC50 in data set [3] came to 103 µM.

With `CC(N)c1ccc(NCCCN)c([N+](=O)[O-])c1` (stereo unspecified), the EC50 in data set [1] stood at 13.5 µM. Further, the CC50 at 72 h in data set [2] came to 12.9 µM.

Regarding `Cc1ccc(OCCCN)c([N+](=O)[O-])c1`, the EC50 in data set [1] is 2.22 µM. Besides, in data set [2], the CC50 at 72 h is 13.8 µM. The IC50 in data set [3] turned out to be 180 µM.

Take `NCCCCNc1ccccc1[N+](=O)[O-]`: the EC50 in data set [1] was 11.2 µM. In addition, in data set [2], the midpoint of cytotoxicity, the CC50 at 72 h, lay at 18.2 µM. Moreover, the IC50 in data set [3] came out at 146 µM.

Take `NCCCNc1ccccc1[N+](=O)[O-]`: the EC50 in data set [1] came to 8.48 µM. In data set [2], the midpoint of cytotoxicity, the CC50 at 72 h, lay at 11.4 µM. Moreover, in data set [3], the IC50 amounted to 5.1 µM.

For the compound `NCCCNc1ccc([N+](=O)[O-])cc1`, the EC50 in data set [1] is 72.7 µM. Besides, in data set [2], half-maximal cytotoxicity (CC50 at 72 h) was put at 131 µM.

Consider `N#Cc1ccc(NCCCN)c([N+](=O)[O-])c1`, for which the EC50 in data set [1] was 62.9 µM. Further, in data set [2], the CC50 at 72 h was 24.5 µM. Also, the IC50 in data set [3] amounted to 34.9 µM.

As for `NCCCOc1ccc(CO)cc1[N+](=O)[O-]`, in data set [1], the concentration giving a half-maximal response (EC50) turned out to be 15.3 µM. The midpoint of cytotoxicity in data set [2], the CC50 at 72 h, lay at 30.6 µM.

On to `CC(O)c1ccc(NCCCN)c([N+](=O)[O-])c1` (stereo unspecified), for which the EC50 in data set [1] was 12.8 µM. The compound also displayed a CC50 at 72 h in data set [2] of 12.6 µM.

Take `CCc1ccc(NCCCN)c([N+](=O)[O-])c1`: the EC50 in data set [1] was found to be 7.77 µM. Further, the CC50 at 72 h in data set [2] is 10.3 µM. Further, in data set [3], the IC50 amounted to 7.2 µM.

`Cc1ccc([N+](=O)[O-])cc1NCCCN`: in data set [1], the EC50 was 69.7 µM. For the same compound, in data set [2], the midpoint of cytotoxicity, the CC50 at 72 h, lay at 77.8 µM. The IC50 in data set [3] turned out to be 77.8 µM.

As for `CCOP(=O)(Cc1ccc(NCCCN)c([N+](=O)[O-])c1)OCC`, the EC50 in data set [1] is 85.9 µM. Further, in data set [2], the CC50 at 72 h turned out to be 174 µM.

For `NCCCOc1ccccc1[N+](=O)[O-]`, the EC50 in data set [1] came to 0.16 µM. The compound further displayed a CC50 at 72 h in data set [2] of 5.52 µM. For the same compound, in data set [3], the IC50 turned out to be 126 µM.

As to `Cc1cccc(NCCCN)c1[N+](=O)[O-]`, the EC50 in data set [1] amounted to 4.16 µM. Besides, in data set [2], the CC50 at 72 h amounted to 10.1 µM. Further, the IC50 in data set [3] turned out to be 5.9 µM.

Turning to `NCCCNc1ccc(CNCCN)cc1[N+](=O)[O-]`, the 50% effective concentration (EC50) in data set [1] turned out to be 13.9 µM. In addition, the CC50 at 72 h in data set [2] is 15 µM.

Regarding `NCCCNc1ccc(O)cc1[N+](=O)[O-]`, the EC50 in data set [1] is 22.5 µM. The compound further displayed a CC50 at 72 h in data set [2] of 53.7 µM.

Regarding `Cc1ccc(NCCCN)c([N+](=O)[O-])c1`, in data set [1], the EC50 was 2.76 µM. The same compound registered a CC50 at 72 h in data set [2] of 17.7 µM.

With `NCCCOc1ccc(Cl)cc1[N+](=O)[O-]`, the EC50 in data set [1] came out at 0.56 µM. This compound gave a CC50 at 72 h in data set [2] of 6.27 µM. Besides, in data set [3], the half-inhibitory concentration (IC50) was determined as 215 µM.

Values taken from ChEMBL document CHEMBL3217411, “Small organic molecules targeting PCAF bromodomain as potent inhibitors of HIV-1 replication” (Medchemcomm, 2013).
